Results from ChEMBL document CHEMBL4007467, “Effects of 6-paradol, an unsaturated ketone from gingers, on cytochrome P450-mediated drug metabolism” (Bioorg Med Chem Lett, 2017).

Legend:
Format in all cases: ADME
Set-up in all cases: scale not given: the % may be the effect or the level left
[1] = molecular target: T1, CYP1A2 (Homo sapiens, UniProt P05177); assay: Inhibition of CYP1A2 in human liver microsomes assessed as enzyme-mediated metabolite formation at 3 uM using phenacetin as substrate incubated for 5 mins followed by NADPH addition measured after 30 mins by LC-MS/MS analysis relative to control; settings: probe phenacetin, read-out: Activity
T1 sequence (P05177 whole entry): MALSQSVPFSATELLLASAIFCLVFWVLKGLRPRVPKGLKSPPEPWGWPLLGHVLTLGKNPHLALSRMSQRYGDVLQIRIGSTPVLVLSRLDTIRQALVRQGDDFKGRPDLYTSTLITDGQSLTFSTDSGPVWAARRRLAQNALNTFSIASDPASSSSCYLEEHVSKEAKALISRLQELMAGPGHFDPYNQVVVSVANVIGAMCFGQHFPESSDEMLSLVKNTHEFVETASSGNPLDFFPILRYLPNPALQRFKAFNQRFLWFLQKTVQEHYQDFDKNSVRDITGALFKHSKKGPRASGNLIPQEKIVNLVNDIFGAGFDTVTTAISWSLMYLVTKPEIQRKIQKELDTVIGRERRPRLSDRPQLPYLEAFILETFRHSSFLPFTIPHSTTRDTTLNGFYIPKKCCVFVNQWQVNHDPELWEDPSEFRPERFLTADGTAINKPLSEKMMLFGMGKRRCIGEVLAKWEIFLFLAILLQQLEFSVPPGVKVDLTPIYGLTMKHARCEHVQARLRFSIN

[2] = molecular target: T2, CYP2A6 (Homo sapiens, UniProt P11509); assay: Inhibition of CYP2A6 in human liver microsomes assessed as enzyme-mediated metabolite formation at 30 uM using coumarin as substrate preincubated for 20 mins followed by substrate addition measured after 30 mins in presence of NADPH by LC-MS/MS analysis relative to control; settings: probe coumarin, read-out: Activity
T2 sequence (P11509 whole entry): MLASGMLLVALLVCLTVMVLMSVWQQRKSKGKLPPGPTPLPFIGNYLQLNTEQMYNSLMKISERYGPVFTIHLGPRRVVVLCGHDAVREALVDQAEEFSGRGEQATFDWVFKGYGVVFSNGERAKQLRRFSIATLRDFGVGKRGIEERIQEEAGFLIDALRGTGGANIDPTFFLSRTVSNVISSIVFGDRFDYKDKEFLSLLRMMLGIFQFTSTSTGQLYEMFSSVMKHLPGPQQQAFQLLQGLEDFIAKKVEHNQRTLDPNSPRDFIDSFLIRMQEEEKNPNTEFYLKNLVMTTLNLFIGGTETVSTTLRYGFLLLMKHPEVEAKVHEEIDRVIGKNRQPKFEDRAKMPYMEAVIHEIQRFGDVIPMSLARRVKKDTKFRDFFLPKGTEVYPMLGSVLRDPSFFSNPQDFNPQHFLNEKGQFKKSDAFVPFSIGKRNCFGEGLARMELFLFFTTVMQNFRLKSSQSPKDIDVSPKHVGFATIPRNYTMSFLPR

[3] = molecular target: CYP2C9 (Homo sapiens, UniProt P11712); assay: Inhibition of CYP2C9 in human liver microsomes assessed as enzyme-mediated metabolite formation at 0.3 uM using diclofenac as substrate incubated for 5 mins followed by NADPH addition measured after 30 mins by LC-MS/MS analysis relative to control; settings: probe diclofenac, read-out: Activity
[4] = molecular target: T1, CYP1A2; assay: Inhibition of CYP1A2 in human liver microsomes assessed as enzyme-mediated metabolite formation at 10 uM using phenacetin as substrate incubated for 5 mins followed by NADPH addition measured after 30 mins by LC-MS/MS analysis relative to control; settings: probe phenacetin, read-out: Activity
[5] = molecular target: CYP2D6 (Homo sapiens, UniProt P10635); assay: Inhibition of CYP2D6 in human liver microsomes assessed as enzyme-mediated metabolite formation at 10 uM using dextromethorphan as substrate preincubated for 20 mins followed by substrate addition measured after 30 mins in presence of NADPH by LC-MS/MS analysis relative to control; settings: probe dextromethorphan, read-out: Activity
[6] = molecular target: T3, CYP3A4 (Homo sapiens, UniProt P08684); assay: Inhibition of CYP3A4 in human liver microsomes assessed as enzyme-mediated metabolite formation at 0.1 uM using testosterone as substrate preincubated for 20 mins followed by substrate addition measured after 30 mins in presence of NADPH by LC-MS/MS analysis relative to control; settings: probe testosterone, read-out: Activity
[7] = molecular target: T3, CYP3A4; assay: Inhibition of CYP3A4 in human liver microsomes assessed as enzyme-mediated metabolite formation at 10 uM using testosterone as substrate preincubated for 20 mins followed by substrate addition measured after 30 mins in presence of NADPH by LC-MS/MS analysis relative to control; settings: probe testosterone, read-out: Activity
[8] = molecular target: T3, CYP3A4; assay: Inhibition of CYP3A4 in human liver microsomes assessed as enzyme-mediated metabolite formation at 0.1 uM using midazolam as substrate incubated for 5 mins followed by NADPH addition measured after 30 mins by LC-MS/MS analysis relative to control; settings: probe midazolam, read-out: Activity
[9] = molecular target: T4, CYP2C8 (Homo sapiens, UniProt P10632); assay: Inhibition of CYP2C8 in human liver microsomes assessed as enzyme-mediated metabolite formation at 3 uM using paclitaxel as substrate preincubated for 20 mins followed by substrate addition measured after 30 mins in presence of NADPH by LC-MS/MS analysis relative to control; settings: probe paclitaxel, read-out: Activity
T4 sequence (P10632 whole entry): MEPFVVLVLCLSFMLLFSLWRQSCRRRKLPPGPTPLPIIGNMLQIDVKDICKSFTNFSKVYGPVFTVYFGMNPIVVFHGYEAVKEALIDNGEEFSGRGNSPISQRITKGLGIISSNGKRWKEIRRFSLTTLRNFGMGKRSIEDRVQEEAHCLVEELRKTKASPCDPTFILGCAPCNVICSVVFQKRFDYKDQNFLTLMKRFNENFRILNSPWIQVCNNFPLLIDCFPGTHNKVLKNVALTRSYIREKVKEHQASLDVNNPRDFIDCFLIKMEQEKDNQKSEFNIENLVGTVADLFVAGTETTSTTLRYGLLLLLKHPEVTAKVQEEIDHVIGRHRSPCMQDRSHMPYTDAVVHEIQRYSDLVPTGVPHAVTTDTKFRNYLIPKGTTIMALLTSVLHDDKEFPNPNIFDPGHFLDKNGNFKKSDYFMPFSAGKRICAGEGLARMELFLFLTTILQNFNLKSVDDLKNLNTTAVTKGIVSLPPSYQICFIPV

[10] = molecular target: T3, CYP3A4; assay: Inhibition of CYP3A4 in human liver microsomes assessed as enzyme-mediated metabolite formation at 3 uM using midazolam as substrate incubated for 5 mins followed by NADPH addition measured after 30 mins by LC-MS/MS analysis relative to control; settings: probe midazolam, read-out: Activity
[11] = molecular target: CYP2C19 (Homo sapiens, UniProt P33261); assay: Inhibition of CYP2C19 in human liver microsomes assessed as enzyme-mediated metabolite formation at 10 uM using (S)-mephenytoin as substrate incubated for 5 mins followed by NADPH addition measured after 30 mins by LC-MS/MS analysis relative to control; settings: probe (S)-mephenytoin, read-out: Activity
[12] = molecular target: T3, CYP3A4; assay: Inhibition of CYP3A4 in human liver microsomes assessed as enzyme-mediated metabolite formation at 1 uM using midazolam as substrate preincubated for 20 mins followed by substrate addition measured after 30 mins in presence of NADPH by LC-MS/MS analysis relative to control; settings: probe midazolam, read-out: Activity

T3 sequence (P08684 whole entry): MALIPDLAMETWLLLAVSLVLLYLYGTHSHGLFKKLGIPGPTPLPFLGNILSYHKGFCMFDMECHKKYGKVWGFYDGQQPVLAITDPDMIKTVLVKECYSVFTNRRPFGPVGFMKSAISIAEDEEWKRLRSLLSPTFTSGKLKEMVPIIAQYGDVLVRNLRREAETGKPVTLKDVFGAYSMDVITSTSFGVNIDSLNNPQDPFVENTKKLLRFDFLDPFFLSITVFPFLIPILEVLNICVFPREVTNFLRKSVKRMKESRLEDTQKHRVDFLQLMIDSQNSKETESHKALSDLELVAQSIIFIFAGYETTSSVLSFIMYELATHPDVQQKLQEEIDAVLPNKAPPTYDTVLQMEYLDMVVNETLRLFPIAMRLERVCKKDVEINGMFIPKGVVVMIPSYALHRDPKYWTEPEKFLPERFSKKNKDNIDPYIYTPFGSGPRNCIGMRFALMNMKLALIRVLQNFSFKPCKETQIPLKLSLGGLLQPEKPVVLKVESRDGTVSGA
Sequence of CYP2C9 (P11712 whole entry): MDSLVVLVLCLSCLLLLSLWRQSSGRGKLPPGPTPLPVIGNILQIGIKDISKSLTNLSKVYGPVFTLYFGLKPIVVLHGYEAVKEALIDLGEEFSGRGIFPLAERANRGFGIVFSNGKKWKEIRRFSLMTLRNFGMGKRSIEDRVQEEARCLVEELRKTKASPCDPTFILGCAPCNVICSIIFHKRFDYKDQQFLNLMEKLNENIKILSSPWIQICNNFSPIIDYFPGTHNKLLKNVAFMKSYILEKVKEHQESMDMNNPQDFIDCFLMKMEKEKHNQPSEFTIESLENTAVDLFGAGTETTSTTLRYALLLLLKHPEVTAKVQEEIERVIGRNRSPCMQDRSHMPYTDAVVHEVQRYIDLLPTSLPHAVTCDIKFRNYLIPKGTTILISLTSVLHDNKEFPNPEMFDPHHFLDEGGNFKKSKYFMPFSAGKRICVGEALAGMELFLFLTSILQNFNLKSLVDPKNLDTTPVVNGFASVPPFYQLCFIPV
Sequence of CYP2C19 (P33261 whole entry): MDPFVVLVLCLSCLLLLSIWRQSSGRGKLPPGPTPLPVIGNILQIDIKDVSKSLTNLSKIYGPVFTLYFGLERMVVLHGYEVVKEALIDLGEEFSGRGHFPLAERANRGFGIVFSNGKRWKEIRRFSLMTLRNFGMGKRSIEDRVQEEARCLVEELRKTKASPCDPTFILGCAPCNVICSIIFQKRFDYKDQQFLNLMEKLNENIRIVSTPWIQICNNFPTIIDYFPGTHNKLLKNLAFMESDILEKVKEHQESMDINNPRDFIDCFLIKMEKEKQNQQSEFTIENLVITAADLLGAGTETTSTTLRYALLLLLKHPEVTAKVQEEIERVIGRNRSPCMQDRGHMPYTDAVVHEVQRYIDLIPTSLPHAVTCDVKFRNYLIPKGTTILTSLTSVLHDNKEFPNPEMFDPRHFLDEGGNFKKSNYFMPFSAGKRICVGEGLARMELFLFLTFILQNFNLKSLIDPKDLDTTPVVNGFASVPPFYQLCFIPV
Sequence of CYP2D6 (P10635 whole entry): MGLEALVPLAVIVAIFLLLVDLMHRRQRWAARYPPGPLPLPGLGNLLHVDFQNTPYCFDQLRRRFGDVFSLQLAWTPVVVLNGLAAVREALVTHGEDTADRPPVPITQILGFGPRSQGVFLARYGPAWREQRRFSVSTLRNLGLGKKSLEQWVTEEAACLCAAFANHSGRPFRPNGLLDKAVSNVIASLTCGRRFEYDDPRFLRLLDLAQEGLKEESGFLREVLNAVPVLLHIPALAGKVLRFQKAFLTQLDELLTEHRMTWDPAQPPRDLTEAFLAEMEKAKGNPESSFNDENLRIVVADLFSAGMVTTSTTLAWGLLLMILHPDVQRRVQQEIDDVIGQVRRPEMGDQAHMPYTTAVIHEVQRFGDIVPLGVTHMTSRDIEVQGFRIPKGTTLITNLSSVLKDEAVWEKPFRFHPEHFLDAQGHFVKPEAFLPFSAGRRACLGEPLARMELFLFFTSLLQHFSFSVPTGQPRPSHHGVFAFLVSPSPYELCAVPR

activity at 0.5 h, 3 µM [1]: 72%
activity at 0.5 h, 30 µM [2]: 79.9%
activity at 0.5 h, 0.3 µM [3]: 93.6%
activity at 0.5 h, 10 µM [4]: 49.7%
activity at 0.5 h, 10 µM [5]: 99.4%
activity at 0.5 h, 0.1 µM [6]: 93.4%
activity at 0.5 h, 10 µM [7]: 83.6%
activity at 0.5 h, 0.1 µM [8]: 109%
activity at 0.5 h, 3 µM [9]: 56.6%
activity at 0.5 h, 3 µM [10]: 77.4%
activity at 0.5 h, 10 µM [11]: 51.5%
activity at 0.5 h, 1 µM [12]: 91.5%
SMILES: CCCCCCCC(=O)CCc1ccc(O)c(OC)c1
